Data from patent publication US20160120848A1, “SPECIFIC CANCER TREATMENT REGIMES WITH GANETESPIB” (SYNTA PHARMACEUTICALS CORP., priority 2013, published 2016).

Legend:
[1] = tested on: ovarian, fallopian tube or peritoneal cancer; assay: Phase I/II study of ganetespib in combination with paclitaxel; type: in vivo; conditions: combination with weekly paclitaxel 80 mg/m^2
Method: A Phase I/II trial of weekly paclitaxel in combination with ganetespib in patients with recurrent, platinum-resistant ovarian, fallopian tube or primary peritoneal cancer is performed. A total of up to 74 patients (up to 18 Phase I patients and up to 56 Phase II patients) with recurrent, platinum-resistant epithelial ovarian, primary peritoneal and fallopian tube carcinoma is enrolled.
Phase I Treatment: Paclitaxel IV given over 1 hour at 80 mg/m^2 days 1, 8 and 15 of a 28-day cycle. Ganetespib IV at a starting dose of 100 mg/m^2 on days 1, 8 and 15 of a 28-day cycle. Ganetespib escalation will follow a modified 3+3 design and escalate from 100 mg/m^2 to 125 mg/m^2 to 150 mg/m^2.
Phase II treatment (after MTD): Phase II TPaclitaxel IV given over 1 hour at 80 mg/m^2 days 1, 8 and 15 of a 28-day cycle. PLUS ganetespib IV at MTD/MED from Phase I on days 1, 8 and 15 of a 28-day cycle.

[2] = tested on: cancers with genetic profiles driven by strong Hsp90 clients; assay: Earlier clinical results for ganetespib, monotherapy and with taxanes; type: in vivo
Excerpt: The clinical study aims to achieve this goal by using ganetespib to target what may be a central driver of ovarian cancer aggressiveness and metastatic ability, namely mutant p53.

[3] = tested on: triple-negative breast cancer; assay: Phase 3 study of ganetespib in combination with docetaxel; type: in vivo, patients; conditions: ganetespib 150 mg/m^2 in combination with docetaxel 75 mg/m^2
Excerpt: This is an open-label, multicenter, randomized Phase 3 study of patients with triple-negative breast cancer (TNBC). Eligible patients are previously untreated for their advanced or metastatic disease and have measurable disease as defined by Response Evaluation Criteria in Solid Tumors (RECIST). Patients are randomized in a 1:1 ratio to receive either ganetespib in combination with docetaxel or docetaxel alone. The study compares the efficacy and tolerability of ganetespib in combination with docetaxel versus docetaxel alone.
The study enrolls approximately 300 patients over a planned 30-month period, and patients are randomized into one of two treatment arms:
Arm A (combination arm): Ganetespib 150 mg/m^2 in combination with docetaxel 75 mg/m^2. On Day 1 of each 3-week treatment cycle, ganetespib and docetaxel are administered as separate 1-hour intravenous infusions. Administration of ganetespib precedes the administration of docetaxel. There is a 1-hour “rest” period following the end of the ganetespib infusion prior to docetaxel infusion. Ganetespib 150 mg/m^2 is administered again on Day 15 of each cycle […]
Clinical and laboratory parameters are assessed to evaluate disease status and toxicity in all patients. […] The post-dose ECG is recorded within approximately 60 minutes after the end of the ganetespib infusion or as soon as feasible. […]

[4] = combination of ganetespib and taxanes

`CC(C)c1cc(-c2n[nH]c(=O)n2-c2ccc3c(ccn3C)c2)c(O)cc1O` [ganetespib] was tested, and the efficacy [1] was “efficacious”, the safety profile [1] was “good safety profile” and the activity [2, 4] was “favorable”. The safety profile [2, 4] was “favorable”, the tumor responses ([2]; ganetespib monotherapy, cancers with genetic profiles driven by strong Hsp90 clients) was “durable objective tumor responses” and the efficacy [3] was “efficacious”. The safety profile [3] was “good safety profile”.
